Literature values as cited in PubChem BioAssay AID1259409 (Chemical Carcinogenesis Research Information System (CCRIS), 2018).

System: rodent chemically induced tumor inhibition, incidence and multiplicity
Test: CCRIS tumor inhibitor studies
Conditions: Route [Inhibitor]: ORAL, Promoter: NONE USED

## CCNC(=O)/C=C(C)/C=C/C=C(C)/C=C/C1=C(C)CCCC1(C)C
Carcinogen: N-METHYL-N-NITROSOUREA, 684-93-5, Dose [Inhibitor]: 2 MMOL/KG DIET DAILY STARTING 12 D AFTER CARCINOGEN TREATMENT THROUGH ABOUT 8 MO AFTER CARCINOGEN DOSE (STUDY DURATION:, Species: RAT, Strain/Sex: F344/MALE, Target Tissue: Type of Lesion: COLON: ADENOMA, Dose [Carcinogen]: 2.5 MG 1/WK FOR 2 WK
  tumour outcome (control, treated, inhibition, significance): 16/39 (41%), 10/30 (33%), 20%, not significant
Carcinogen: N-METHYL-N-NITROSOUREA, 684-93-5, Dose [Inhibitor]: 327 MG/KG DIET DAILY STARTING 1 WK AFTER LAST CARCINOGEN TREATMENT AND CONTINUING FOR 6 MO (STUDY DURATION: 9 MO), Species: HAMSTER, Strain/Sex: SYRIAN/MALE, Target Tissue: Type of Lesion: TRACHEA: BENIGN EPITHELIAL NEOPLASM, Dose [Carcinogen]: 0.5% IN 1 ML PHOSPHATE-BUFFERED SALINE 1/WK FOR 12 WK
  tumour outcome (control, treated, inhibition, significance): 6/63 (10%), 12/63 (19%), -90%, not significant
Carcinogen: N-METHYL-N-NITROSOUREA, 684-93-5, Dose [Inhibitor]: 327 MG/KG DIET DAILY STARTING 1 WK AFTER LAST CARCINOGEN TREATMENT AND CONTINUING FOR 6 MO (STUDY DURATION: 9 MO), Species: HAMSTER, Strain/Sex: SYRIAN/MALE, Target Tissue: Type of Lesion: TRACHEA: CARCINOMA, Dose [Carcinogen]: 0.5% IN 1 ML PHOSPHATE-BUFFERED SALINE 1/WK FOR 12 WK
  tumour outcome (control, treated, inhibition, significance): 4/63 (6%), 12/63 (19%), -217%, p<0.05
Carcinogen: N-METHYL-N-NITROSOUREA, 684-93-5, Dose [Inhibitor]: 327 MG/KG DIET DAILY STARTING 1 WK AFTER LAST CARCINOGEN TREATMENT AND CONTINUING FOR 6 MO (STUDY DURATION: 9 MO), Species: HAMSTER, Strain/Sex: SYRIAN/MALE, Target Tissue: Type of Lesion: TRACHEA: EPITHELIAL NEOPLASM, Dose [Carcinogen]: 0.5% IN 1 ML PHOSPHATE-BUFFERED SALINE 1/WK FOR 12 WK
  tumour outcome (control, treated, inhibition, significance): 10/63 (16%), 24/63 (38%), -138%, p<0.01
Carcinogen: N-METHYL-N-NITROSOUREA, 684-93-5, Dose [Inhibitor]: 327 MG/KG IN DIET DAILY FOR 6 MO STARTING 1 WK AFTER FINAL CARCINOGEN DOSE (STUDY DURATION: 9 MO), Species: HAMSTER, Strain/Sex: SYRIAN/MALE, Target Tissue: Type of Lesion: TRACHEA: BENIGN EPITHELIAL NEOPLASM, Dose [Carcinogen]: 0.5% SOLUTION FOR 5 SECOND EXPOSURE 1/WK FOR 12 WK
  tumour outcome (control, treated, inhibition, significance): 6/63 (10%), 12/63 (19%), -90%, not significant
Carcinogen: N-METHYL-N-NITROSOUREA, 684-93-5, Dose [Inhibitor]: 327 MG/KG IN DIET DAILY FOR 6 MO STARTING 1 WK AFTER FINAL CARCINOGEN DOSE (STUDY DURATION: 9 MO), Species: HAMSTER, Strain/Sex: SYRIAN/MALE, Target Tissue: Type of Lesion: TRACHEA: CARCINOMA, Dose [Carcinogen]: 0.5% SOLUTION FOR 5 SECOND EXPOSURE 1/WK FOR 12 WK
  tumour outcome (control, treated, inhibition, significance): 4/63 (6%), 12/63 (19%), -216%, p<0.05
Carcinogen: N-METHYL-N-NITROSOUREA, 684-93-5, Dose [Inhibitor]: 327 MG/KG IN DIET DAILY FOR 6 MO STARTING 1 WK AFTER FINAL CARCINOGEN DOSE (STUDY DURATION: 9 MO), Species: HAMSTER, Strain/Sex: SYRIAN/MALE, Target Tissue: Type of Lesion: TRACHEA: EPITHELIAL NEOPLASM, Dose [Carcinogen]: 0.5% SOLUTION FOR 5 SECOND EXPOSURE 1/WK FOR 12 WK
  tumour outcome (control, treated, inhibition, significance): 10/63 (16%), 24/63 (38%), -138%, p<0.01
Carcinogen: N-METHYL-N-NITROSOUREA, 684-93-5, Dose [Inhibitor]: 654 MG/KG DIET DAILY FOR 24 WK STARTING 5 D AFTER LAST DOSE OF CARCINOGEN (STUDY DURATION: 32 WK), Species: RAT, Strain/Sex: F344/MALE, Target Tissue: Type of Lesion: COLON: SARCOMA, Dose [Carcinogen]: 0.5 MG 2/WK FOR 8 WK
  tumour outcome (control, treated, inhibition, significance): 5/40 (13%), 1/40 (3%), 77%, not calculated
Carcinogen: N-METHYL-N-NITROSOUREA, 684-93-5, Dose [Inhibitor]: 654 MG/KG DIET DAILY FOR 24 WK STARTING 5 D AFTER LAST DOSE OF CARCINOGEN (STUDY DURATION: 32 WK), Species: RAT, Strain/Sex: F344/MALE, Target Tissue: Type of Lesion: COLON: TUMOR, Dose [Carcinogen]: 0.5 MG 2/WK FOR 8 WK
  tumour outcome (control, treated, inhibition, significance): 60%, 65%, -8%, not significant
Carcinogen: N-METHYL-N-NITROSOUREA, 684-93-5, Dose [Inhibitor]: 654 MG/KG DIET DAILY FOR 38 WK STARTING 5 D AFTER LAST DOSE OF CARCINOGEN (STUDY DURATION: 44 WK), Species: RAT, Strain/Sex: F344/MALE, Target Tissue: Type of Lesion: COLON: TUMOR, Dose [Carcinogen]: 0.5 MG 2/WK FOR 6 WK
  tumour outcome (control, treated, inhibition, significance): 62%, 62%, 0%, not significant
Carcinogen: N-METHYL-N-NITROSOUREA, 684-93-5, Dose [Inhibitor]: 654 MG/KG DIET DAILY FOR 48 WK STARTING 5 D AFTER LAST DOSE OF CARCINOGEN (STUDY DURATION: 52 WK), Species: RAT, Strain/Sex: F344/MALE, Target Tissue: Type of Lesion: COLON: TUMOR, Dose [Carcinogen]: 0.5 MG 2/WK FOR 4 WK
  tumour outcome (control, treated, inhibition, significance): 31%, 30%, 3%, not significant
Carcinogen: N-NITROBIS(2-OXOPROPYL)AMINE, 60559-38-4, Dose [Inhibitor]: 0.5 OR 1.0 MMOL/KG DIET DAILY STARTING 1 WK AFTER CARCINOGEN TREATMENT AND CONTINUING THROUGH THE END OF THE STUDY (STUD, Species: HAMSTER, Strain/Sex: SYRIAN/FEMALE, Target Tissue: Type of Lesion: LIVER: BENIGN TUMOR, Dose [Carcinogen]: 40 MG/KG BW ONCE
  tumour outcome (control, treated, inhibition, significance): 4/20 (20%), 17/37 (46%), -130%, not significant
Carcinogen: N-NITROBIS(2-OXOPROPYL)AMINE, 60559-38-4, Dose [Inhibitor]: 0.5 OR 1.0 MMOL/KG DIET DAILY STARTING 1 WK AFTER CARCINOGEN TREATMENT AND CONTINUING THROUGH THE END OF THE STUDY (STUD, Species: HAMSTER, Strain/Sex: SYRIAN/FEMALE, Target Tissue: Type of Lesion: ND: TOTAL TUMOR, Dose [Carcinogen]: 40 MG/KG BW ONCE
  tumour outcome (control, treated, inhibition, significance): 17/20 (85%), 32/37 (86%), 1%, not significant
Carcinogen: N-NITROBIS(2-OXOPROPYL)AMINE, 60559-38-4, Dose [Inhibitor]: 0.5 OR 1.0 MMOL/KG DIET DAILY STARTING 1 WK AFTER CARCINOGEN TREATMENT AND CONTINUING THROUGH THE END OF THE STUDY (STUD, Species: HAMSTER, Strain/Sex: SYRIAN/FEMALE, Target Tissue: Type of Lesion: PANCREAS: DUCTULAR ADENOMA, Dose [Carcinogen]: 10 MG/KG BW ONCE
  tumour outcome (control, treated, inhibition, significance): 5/23 (23%), 13/25 (52%), -126%, not significant
Carcinogen: N-NITROBIS(2-OXOPROPYL)AMINE, 60559-38-4, Dose [Inhibitor]: 0.5 OR 1.0 MMOL/KG DIET DAILY STARTING 1 WK AFTER CARCINOGEN TREATMENT AND CONTINUING THROUGH THE END OF THE STUDY (STUD, Species: HAMSTER, Strain/Sex: SYRIAN/FEMALE, Target Tissue: Type of Lesion: PANCREAS: DUCTULAR ADENOMA, Dose [Carcinogen]: 40 MG/KG BW ONCE
  tumour outcome (control, treated, inhibition, significance): 12/20 (60%), 27/37 (73%), -22%, not significant
Carcinogen: N-NITROBIS(2-OXOPROPYL)AMINE, 60559-38-4, Dose [Inhibitor]: 0.5 OR 1.0 MMOL/KG DIET DAILY STARTING 1 WK AFTER CARCINOGEN TREATMENT AND CONTINUING THROUGH THE END OF THE STUDY (STUD, Species: HAMSTER, Strain/Sex: SYRIAN/FEMALE, Target Tissue: Type of Lesion: PANCREAS: DUCTULAR CARCINOMA, Dose [Carcinogen]: 10 MG/KG BW ONCE
  tumour outcome (control, treated, inhibition, significance): 6/23 (27%), 6/25 (24%), 11%, not significant
Carcinogen: N-NITROBIS(2-OXOPROPYL)AMINE, 60559-38-4, Dose [Inhibitor]: 0.5 OR 1.0 MMOL/KG DIET DAILY STARTING 1 WK AFTER CARCINOGEN TREATMENT AND CONTINUING THROUGH THE END OF THE STUDY (STUD, Species: HAMSTER, Strain/Sex: SYRIAN/MALE, Target Tissue: Type of Lesion: LIVER: BENIGN TUMOR, Dose [Carcinogen]: 40 MG/KG BW ONCE
  tumour outcome (control, treated, inhibition, significance): 5/24 (21%), 25/41 (62%), -195%, p<0.05
Carcinogen: N-NITROBIS(2-OXOPROPYL)AMINE, 60559-38-4, Dose [Inhibitor]: 0.5 OR 1.0 MMOL/KG DIET DAILY STARTING 1 WK AFTER CARCINOGEN TREATMENT AND CONTINUING THROUGH THE END OF THE STUDY (STUD, Species: HAMSTER, Strain/Sex: SYRIAN/MALE, Target Tissue: Type of Lesion: ND: TOTAL TUMOR, Dose [Carcinogen]: 10 MG/KG BW ONCE
  tumour outcome (control, treated, inhibition, significance): 12/22 (54%), 24/31 (77%), -43%, not significant
